Measured values from the NIST ThermoML archive (doi:10.1021/acs.jced.8b00537).
Numbers after ± are expanded uncertainties.

Assay: xn = mol fraction of the nth substance listed
Settings: 100 kPa, Liquid; for mass density: Vibrating tube method; for viscosity: Capillary tube (Ostwald / Ubbelohde) method; for speed of sound: Frequency=3 MHz, Single path-length method

CC[S+](CC)CC.O=S(=O)([N-]S(=O)(=O)C(F)(F)F)C(F)(F)F [triethylsulfonium bis((trifluoromethyl)sulfonyl)imide] + CCCO
Settings | mass density, 303.15 K [kg/m3] | mass density, 308.15 K [kg/m3] | mass density, 313.15 K [kg/m3] | speed of sound, 308.15 K [m/s] | speed of sound, 313.15 K [m/s] | speed of sound, 318.15 K [m/s] | viscosity, 308.15 K [mPa·s] | viscosity, 313.15 K [mPa·s] | viscosity, 318.15 K [mPa·s]
x1 = 0.04926 | – | 897 ± 2 | 893 ± 2 | 1159.5 ± 6 | 1144.2 ± 6 | 1129 ± 6 | 1.962 ± 0.16 | 1.747 ± 0.14 | 1.563 ± 0.12
x1 = 0.1003 | – | 983 ± 2 | 978 ± 2 | 1151.3 ± 6 | 1137.2 ± 6 | 1123.1 ± 6 | 2.609 ± 0.21 | 2.304 ± 0.18 | 2.049 ± 0.16
x1 = 0.1993 | 1111 ± 2 | 1106 ± 2 | 1101 ± 2 | 1155.7 ± 6 | 1142.8 ± 6 | 1129.9 ± 6 | 3.816 ± 0.31 | 3.354 ± 0.27 | 2.972 ± 0.24
x1 = 0.3008 | 1199 ± 2 | 1194 ± 2 | 1190 ± 2 | 1165.8 ± 6 | 1153.5 ± 6 | 1141.3 ± 6 | 5.034 ± 0.4 | 4.421 ± 0.35 | 3.913 ± 0.31
x1 = 0.3991 | 1263 ± 3 | 1258 ± 3 | 1253 ± 3 | 1176.3 ± 6 | 1164.5 ± 6 | 1152.7 ± 6 | 6.787 ± 0.54 | 5.945 ± 0.48 | 5.25 ± 0.42
x1 = 0.5023 | 1314 ± 3 | 1310 ± 3 | 1305 ± 3 | 1187.1 ± 6 | 1175.6 ± 6 | – | 7.806 ± 0.63 | 6.842 ± 0.55 | 6.044 ± 0.49
x1 = 0.5987 | 1353 ± 3 | 1348 ± 3 | 1343 ± 3 | 1194.2 ± 6 | 1183 ± 6 | – | 10.01 ± 0.8 | 8.742 ± 0.7 | 7.698 ± 0.62
x1 = 0.6987 | 1386 ± 3 | 1381 ± 3 | 1376 ± 3 | 1201.5 ± 6 | 1190.5 ± 6 | – | 12.35 ± 0.99 | 10.75 ± 0.86 | 9.441 ± 0.76
x1 = 0.7947 | 1411 ± 3 | 1407 ± 3 | 1402 ± 3 | 1207.4 ± 6.1 | 1196.6 ± 6.1 | – | 15.19 ± 1.2 | 13.15 ± 1.1 | 11.49 ± 0.92
x1 = 0.903 | 1436 ± 3 | 1431 ± 3 | 1426 ± 3 | 1213.1 ± 6.1 | 1202.5 ± 6.1 | – | 18.81 ± 1.5 | 16.18 ± 1.3 | 14.06 ± 1.1
x1 = 1 | 1455 ± 3 | 1450 ± 3 | 1446 ± 3 | 1222.4 ± 6.1 | 1212.7 ± 6.1 | – | 22.64 ± 1.8 | 19.24 ± 1.5 | 16.53 ± 1.3
